Measured values: patent US9724506B2, “Nanopillar electrode devices and methods of recording action potentials” (The Board of Trustees of the Leland Stanford Junior …, priority 2013, dated 2017)
Several values for one entry are separate records, joined by “and”; a condition that tells them apart may be missing. Equal values may be shown once.

System: HL-1 cells
Experiment: Nanopillar electrode intracellular recording of HL-1 action potentials after electroporation, before and after ion-channel drug
Format: cell-based, mouse
Conditions: for APD50 after drug: 10 min incubation, 4 different HL-1 cells in 3 cultures, same cell recorded before and after drug; for APD50 change (%): APD50 after drug versus before drug on the same HL-1 cell
Protocol: The HL-1 cardiomyocyte cell line was obtained from the laboratory of William C. Claycomb at Louisiana State University. Before plating, the nanopillar electrode device was cleaned with detergent and deionized water, followed by 5 minutes of oxygen plasma treatment. The culture chamber was coated with 5 Δg ml^−1 fibronectin in 0.02% gelatin solution overnight to facilitate cell attachment (Claycomb et al. (1998) Proc. Natl. Acad. Sci. USA 95:2979-2984). HL-1 cells were then plated inside the chamber at a density of ˜1×10^5 cm^−2 and were maintained in the Claycomb medium supplemented with 10% fetal bovine serum, 0.1 mM norepinephrine, 2 mM L-glutamine and 100 U ml^−1 penicillin and 100 Δg ml^−1 streptomycin. The cells were maintained in a standard incubator at 37° C. and 5% CO2. Medium was changed every 24 hours. […] Fluorescent imaging of calcein dye was performed with a 470 nm excitation filter and a 525 nm emission filter.
A 60-channel voltage amplifier system (Multichannel System, MEA1060) was used to record HL-1 cells cultured on the nanopillar electrode arrays (nine nanopillars per array) after the cells started beating. Recording was performed in the same culture medium at 37° C. with an Ag/AgCl electrode in the medium as the reference electrode. The amplification was typically 110× for intracellular recording or 1,100× for extracellular recording, and the sampling rate was 5-20 kHz. The signal was filtered with a band-pass of 1 Hz-5 kHz. For electroporation, 20 biphasic pulses of 2.5 Vamp were applied to a nanopillar electrode in a total time of 1 second. The recording system was blanked during the electroporation period. Electrophysiology recordings were resumed 20-40 seconds after electroporation to avoid amplifier saturation.
For control experiments, we electroporated the cells to record action potentials in the absence of drugs. After the cells had recovered for a few hours, nifedipine or tetraethyl-ammonium of different concentrations was added to the culture medium and the cultures incubated for 10 minutes. Subsequently, another electroporation was applied to record the action potentials of the drug-treated cells.

[1] = 10 mM tetraethylammonium, HL-1 cells, versus control recording without drug (FIG. 5)

| SMILES | APD50 after drug (100 nM nifedepine) | APD50 change (%) (100 nM nifedepine) | APD50 after drug (1 mM tetraethylammonium) | APD50 change (%) (1 mM tetraethylammonium) | APD50 [1] | action potential period [1] | APD50 relative to the control (FIG. 5c, four different HL-1 cells on three different cultures per drug) |
| --- | --- | --- | --- | --- | --- | --- | --- |
| COC(=O)C1=C(C)NC(C)=C(C(=O)OC)C1c1ccccc1[N+](=O)[O-] [nifedipine] | 41.52 ms and 43.40 ms and 40.92 ms and 33.39 ms | 93.8% and 93.6% and 94.0% and 92.9% | – | – | – | – | – |
| CC[N+](CC)(CC)CC [tetraethylammonium] | – | – | 50.54 ms and 45.74 ms and 48.78 ms and 54.93 ms | 109.9% and 110.5% and 111.1% and 109.8% | increasing APD50 | decreasing the period | increase |
